We go through four sequences from patent US20070128217A1 (priority 2003, published 2007).

Test [1] concerns rabbit serum obtained by immunizing a rabbit with the SARS-CoV strain Frankfurt 1. Type of test: binding. Set-up: Binding of a rabbit serum to linear peptides / Binding of a rabbit serum to looped peptides / Rabbit serum linear peptides / Rabbit serum looped peptides / Binding of a rabbit serum to linear peptides of protein N of SARS-CoV Urbani (Rabbit serum linear peptides) / Binding of a rabbit serum to looped/cyclic peptides of protein N of SARS-CoV Urbani (Rabbit serum looped peptides): unit not given here.

Test [2] relates to control sera (pooled serum of ten healthy LUMC hospital workers; commercial negative donor pooled serum from the Dutch bloodbank). Type of test: binding, human. More on the design: Binding of Control serum LUMC to linear peptides / Binding of Control serum Blood-bank to linear peptides / Binding of Control serum LUMC to looped peptides / Binding of Control Serum Blood-Bank to Looped peptides / Binding of Control serum LUMC to linear peptides of the protein M of SARS-CoV Urbani / Binding of Control serum Blood-bank to linear peptides of the protein M of SARS-CoV Urbani / Binding of Control serum LUMC to looped peptides of the protein M of SARS-CoV Urbani / Binding of Control Serum Blood-Bank to Looped peptides of the protein M of SARS-CoV Urbani: unit not given here.

Test [3] concerns antibodies in sera from SARS patients (sera 1a, 1b, 2, 6, 37, 62, London, SARS-yellow, SARS-green). In kind it is binding, human. More on the design: Binding of serum 6 to linear peptides of protein X1 of SARS-CoV Urbani / Binding of serum 37 to linear peptides of protein X1 of SARS-CoV Urbani / Binding of serum 6 to looped/cyclic peptide (PEPSCAN-ELISA) / Binding of serum 37 to looped/cyclic peptide (PEPSCAN-ELISA) / Binding of serum 37 to looped/cyclic peptides of protein X1 of SARS-CoV Urbani / Binding of serum 6 to linear peptides of protein X2 / Binding of serum 37 to linear peptides of protein X2 / Binding of serum 37 to looped/cyclic peptides of protein X2 of SARS-CoV Urbani / Binding of serum 6 to linear peptides of protein M of SARS-CoV Urbani / Binding of serum 37 to linear peptides of protein M of SARS-CoV Urbani / Binding of serum 6 to looped/cyclic peptides of protein M of SARS-CoV Urbani / Binding of serum 37 to looped/cyclic peptides of protein M of SARS-CoV Urbani / Binding of serum 6 to linear peptides of protein X3 of SARS-CoV Urbani / Binding of serum 37 to linear peptides of protein X3 of SARS-CoV Urbani / Binding of serum 37 to looped/cyclic peptides of protein X3 of SARS-CoV Urbani / Binding of serum 6 to linear peptides of protein X4 of SARS-CoV Urbani / Binding of serum 37 to linear peptides of protein X4 of SARS-CoV Urbani / Binding of serum 37 to looped/cyclic peptides of protein X4 of SARS-CoV Urbani / Binding of serum 6 to linear peptides of protein X5 of SARS-CoV Urbani / Binding of serum 37 to linear peptides of protein X5 of SARS-CoV Urbani / Binding of serum 37 to looped/cyclic peptides of protein X5 of SARS-CoV Urbani / Binding of serum 6 to linear peptides of protein N of SARS-CoV Urbani / Binding of serum 37 to linear peptides of protein N of SARS-CoV Urbani / Binding of serum 6 to linear peptide (PEPSCAN-ELISA) / Binding of serum 1a to looped/cyclic peptides of protein N of SARS-CoV Urbani / Binding of serum 1b to looped/cyclic peptides of protein N of SARS-CoV Urbani / Binding of serum 2 to looped/cyclic peptides of protein N of SARS-CoV Urbani / Binding of serum 6 to looped/cyclic peptides of protein N of SARS-CoV Urbani / Binding of serum 37 to looped/cyclic peptides of protein N of SARS-CoV Urbani / Binding of serum 62 to looped/cyclic peptides of protein N of SARS-CoV Urbani / Binding of serum London to looped/cyclic peptides of protein N of SARS-CoV Urbani / Binding of serum SARS-green to looped/cyclic peptides of protein N of SARS-CoV Urbani: unit not given here.

For NTYSTAWLCALGKVL, in test [1], the “Rabbit serum linear peptides” value is listed as 0.6 and the “Rabbit serum looped peptides” value is on record as 0.5. In addition, in test [2], the “Binding of Control Serum Blood-Bank to Looped peptides” value was found to be 0.4, the “Binding of Control serum Blood-bank to linear peptides” value was 0.8, the “Binding of Control serum LUMC to linear peptides” value is 0.4 and the “Binding of Control serum LUMC to looped peptides” value worked out at 0.5. Further, in test [3], the “Binding of serum 1a to linear peptides of protein X5 of SARS-CoV Urbani” value turned out to be 0.7, the “Binding of serum 1a to looped/cyclic peptides of protein X5 of SARS-CoV Urbani” value is 0.4, the “Binding of serum 1b to linear peptides of protein X5 of SARS-CoV Urbani” value was 0.4 and the “Binding of serum 1b to looped/cyclic peptides of protein X5 of SARS-CoV Urbani” value worked out at 0.3. Also, in test [3], the “Binding of serum 2 to linear peptides of protein X5 of SARS-CoV Urbani” value came out at 0.5, the “Binding of serum 2 to looped/cyclic peptides of protein X5 of SARS-CoV Urbani” value was 0.5, the “Binding of serum 6 to linear peptides of protein X5 of SARS-CoV Urbani” value was 0.6 and the “Binding of serum 6 to looped/cyclic peptides of protein X5 of SARS-CoV Urbani” value was found to be 1.1. Besides, in test [3], the “Binding of serum 37 to linear peptides of protein X5 of SARS-CoV Urbani” value stood at 0.6, the “Binding of serum 37 to looped/cyclic peptides of protein X5 of SARS-CoV Urbani” value was 0.5, the “Binding of serum 62 to linear peptides of protein X5 of SARS-CoV Urbani” value is 0.7 and the “Binding of serum 62 to looped/cyclic peptides of protein X5 of SARS-CoV Urbani” value is listed as 0.6. Besides, in test [3], the “Binding of serum London to linear peptides of protein X5 of SARS-CoV Urbani” value worked out at 0.6, the “Binding of serum London to looped/cyclic peptides of protein X5 of SARS-CoV Urbani” value was 2.3, the “Binding of serum SARS-green to linear peptides of protein X5 of SARS-CoV Urbani” value is listed as 0.4 and the “Binding of serum SARS-green to looped/cyclic peptides of protein X5 of SARS-CoV Urbani” value is 0.3. Moreover, in test [3], the “Binding of serum SARS-yellow to linear peptides of protein X5 of SARS-CoV Urbani” value was 0.3 and the “Binding of serum SARS-yellow to looped/cyclic peptides of protein X5 of SARS-CoV Urbani” value stood at 0.6.

For the sequence NVPLRGTIVTRPLME, in test [1], the “Rabbit serum linear peptides” value came out at 0.3 and the “Rabbit serum looped peptides” value was 0.5. In addition, in test [2], the “Binding of Control Serum Blood-Bank to Looped peptides of the protein M of SARS-CoV Urbani” value is 0.7, the “Binding of Control serum Blood-bank to linear peptides of the protein M of SARS-CoV Urbani” value turned out to be 0.6, the “Binding of Control serum LUMC to linear peptides of the protein M of SARS-CoV Urbani” value was 0.4 and the “Binding of Control serum LUMC to looped peptides of the protein M of SARS-CoV Urbani” value is 0.9. In test [3], the “Binding of serum 1a to linear peptides of protein M of SARS-CoV Urbani” value was found to be 0.8, the “Binding of serum 1b to linear peptides of protein M of SARS-CoV Urbani” value was 0.6, the “Binding of serum 2 to linear peptides of protein M of SARS-CoV Urbani” value stood at 0.4 and the “Binding of serum 6 to linear peptides of protein M of SARS-CoV Urbani” value amounted to 0.3. Also, in test [3], the “Binding of serum 37 to linear peptides of protein M of SARS-CoV Urbani” value amounted to 0.7, the “Binding of serum 62 to linear peptides of protein M of SARS-CoV Urbani” value was found to be 0.8, the “Binding of serum London to linear peptides of protein M of SARS-CoV Urbani” value is given as 0.3 and the “Binding of serum SARS-green to linear peptides of protein M of SARS-CoV Urbani” value is 0.4. Besides, in test [3], the “Binding of serum SARS-yellow to linear peptides of protein M of SARS-CoV Urbani” value came to 0.1; the “Recognition of the peptide by sera of SARS-CoV infected individuals, and form (linear, looped/cyclic) in which it is recognized” value is given as “recognized in looped/cyclic form”.

Turning to NVQIHTIDGSSGVAN, in test [1], the “Binding of a rabbit serum to linear peptides” value was 0.1 and the “Binding of a rabbit serum to looped peptides” value amounted to 0.3. For the same sequence, in test [2], the “Binding of Control Serum Blood-Bank to Looped peptides” value was 0.4, the “Binding of Control serum Blood-bank to linear peptides” value is given as 0.5, the “Binding of Control serum LUMC to linear peptides” value came to 0.5 and the “Binding of Control serum LUMC to looped peptides” value is listed as 0.4. In test [3], the “Binding of serum 1a to linear peptides of protein X1 of SARS-CoV Urbani” value came out at 0.7, the “Binding of serum 1a to looped/cyclic peptides of protein X1 of SARS-CoV Urbani” value is listed as 0.2, the “Binding of serum 1b to linear peptides of protein X1 of SARS-CoV Urbani” value came out at 0.5 and the “Binding of serum 1b to looped/cyclic peptides of protein X1 of SARS-CoV Urbani” value amounted to 0.2. Moreover, in test [3], the “Binding of serum 2 to linear peptides of protein X1 of SARS-CoV Urbani” value worked out at 0.5, the “Binding of serum 2 to looped/cyclic peptides of protein X1 of SARS-CoV Urbani” value is reported as 0.1, the “Binding of serum 6 to linear peptides of protein X1 of SARS-CoV Urbani” value amounted to 0.4 and the “Binding of serum 6 to looped/cyclic peptides of protein X1 of SARS-CoV Urbani” value is listed as 0.1. For the same sequence, in test [3], the “Binding of serum 37 to linear peptides of protein X1 of SARS-CoV Urbani” value is reported as 0.7, the “Binding of serum 37 to looped/cyclic peptides of protein X1 of SARS-CoV Urbani” value is reported as 0.3, the “Binding of serum 62 to linear peptides of protein X1 of SARS-CoV Urbani” value was determined as 0.6 and the “Binding of serum 62 to looped/cyclic peptides of protein X1 of SARS-CoV Urbani” value was 0.3. In addition, in test [3], the “Binding of serum London to linear peptides of protein X1 of SARS-CoV Urbani” value is given as 0.3, the “Binding of serum London to looped/cyclic peptides of protein X1 of SARS-CoV Urbani” value came to 0.2, the “Binding of serum SARS-green to linear peptides of protein X1 of SARS-CoV Urbani” value was 0.3 and the “Binding of serum SARS-green to looped/cyclic peptides of protein X1 of SARS-CoV Urbani” value came to 0.2. In test [3], the “Binding of serum SARS-yellow to linear peptides of protein X1 of SARS-CoV Urbani” value is on record as 0.4 and the “Binding of serum SARS-yellow to looped/cyclic peptides of protein X1 of SARS-CoV Urbani” value is 0.1.

PFHRWHTMVQTCTPN: in test [1], the “Rabbit serum linear peptides” value was determined as 0.5 and the “Rabbit serum looped peptides” value stood at 0.4. In addition, in test [2], the “Binding of Control Serum Blood-Bank to Looped peptides” value worked out at 0.5, the “Binding of Control serum Blood-bank to linear peptides” value is listed as 0.7, the “Binding of Control serum LUMC to linear peptides” value amounted to 0.5 and the “Binding of Control serum LUMC to looped peptides” value was 0.4. Besides, in test [3], the “Binding of serum 1a to linear peptides of protein X5 of SARS-CoV Urbani” value is 0.7, the “Binding of serum 1a to looped/cyclic peptides of protein X5 of SARS-CoV Urbani” value is on record as 0.6, the “Binding of serum 1b to linear peptides of protein X5 of SARS-CoV Urbani” value is 0.7 and the “Binding of serum 1b to looped/cyclic peptides of protein X5 of SARS-CoV Urbani” value is 0.5. Further, in test [3], the “Binding of serum 2 to linear peptides of protein X5 of SARS-CoV Urbani” value was found to be 0.7, the “Binding of serum 2 to looped/cyclic peptides of protein X5 of SARS-CoV Urbani” value is 0.6, the “Binding of serum 6 to linear peptides of protein X5 of SARS-CoV Urbani” value was determined as 0.7 and the “Binding of serum 6 to looped/cyclic peptides of protein X5 of SARS-CoV Urbani” value is given as 0.3. For the same sequence, in test [3], the “Binding of serum 37 to linear peptides of protein X5 of SARS-CoV Urbani” value worked out at 0.7, the “Binding of serum 37 to looped/cyclic peptides of protein X5 of SARS-CoV Urbani” value is 0.5, the “Binding of serum 62 to linear peptides of protein X5 of SARS-CoV Urbani” value is reported as 0.7 and the “Binding of serum 62 to looped/cyclic peptides of protein X5 of SARS-CoV Urbani” value stood at 0.3. Further, in test [3], the “Binding of serum London to linear peptides of protein X5 of SARS-CoV Urbani” value was 0.7, the “Binding of serum London to looped/cyclic peptides of protein X5 of SARS-CoV Urbani” value turned out to be 0.2, the “Binding of serum SARS-green to linear peptides of protein X5 of SARS-CoV Urbani” value worked out at 0.5 and the “Binding of serum SARS-green to looped/cyclic peptides of protein X5 of SARS-CoV Urbani” value is on record as 0.3. For the same sequence, in test [3], the “Binding of serum SARS-yellow to linear peptides of protein X5 of SARS-CoV Urbani” value worked out at 0.4 and the “Binding of serum SARS-yellow to looped/cyclic peptides of protein X5 of SARS-CoV Urbani” value came out at 0.3.
